Measured values: the NIST ThermoML archive (doi:10.1021/je4009238)
± gives the expanded uncertainty stated by the source.

Assay: xn = mol fraction of the nth substance listed
Conditions: 101 kPa, Liquid

CCn1cc[n+](C)c1.[Cl-] [1-ethyl-3-methylimidazolium chloride] + CN(C)C=O
Conditions	mass density, 298.15 K [kg/m3]	mass density, 308.15 K [kg/m3]	mass density, 318.15 K [kg/m3]	viscosity, 298.15 K [mPa·s]	viscosity, 308.15 K [mPa·s]	viscosity, 318.15 K [mPa·s]
x1 = 0.0102	949.52 ± 0.86	940.08 ± 0.92	930.6 ± 0.98	0.8935 ± 0.11	0.7902 ± 0.1	0.7059 ± 0.097
x1 = 0.0203	954.18 ± 0.84	944.84 ± 0.89	935.4 ± 0.95	1.007 ± 0.11	0.8895 ± 0.11	0.794 ± 0.1
x1 = 0.031	958.86 ± 0.81	949.62 ± 0.86	940.37 ± 0.92	1.03 ± 0.11	0.9058 ± 0.11	0.8045 ± 0.1
x1 = 0.0417	963.18 ± 0.78	954.02 ± 0.84	944.85 ± 0.89	1.147 ± 0.12	1.004 ± 0.11	0.8901 ± 0.11
x1 = 0.0524	967.27 ± 0.76	958.21 ± 0.81	949.12 ± 0.87	1.198 ± 0.12	1.045 ± 0.11	0.923 ± 0.11
x1 = 0.0635	971.86 ± 0.73	962.87 ± 0.79	953.87 ± 0.84	1.312 ± 0.13	1.139 ± 0.12	1.002 ± 0.11
x1 = 0.0752	976.05 ± 0.71	967.15 ± 0.76	958.24 ± 0.81	1.501 ± 0.14	1.297 ± 0.13	1.136 ± 0.12
x1 = 0.0867	980.59 ± 0.68	971.78 ± 0.73	962.96 ± 0.79	1.577 ± 0.14	1.355 ± 0.13	1.181 ± 0.12
x1 = 0.0988	984.64 ± 0.65	975.93 ± 0.71	967.2 ± 0.76	1.784 ± 0.15	1.527 ± 0.14	1.327 ± 0.13
x1 = 0.1107	988.67 ± 0.63	980.02 ± 0.68	971.44 ± 0.74	1.879 ± 0.16	1.625 ± 0.15	1.404 ± 0.13
x1 = 0.1232	992.88 ± 0.61	984.31 ± 0.66	975.73 ± 0.71	2.014 ± 0.17	1.705 ± 0.15	1.468 ± 0.14
x1 = 0.1361	997.07 ± 0.58	988.59 ± 0.63	980.13 ± 0.69	2.278 ± 0.18	1.916 ± 0.16	1.64 ± 0.15
x1 = 0.1489	1001.24 ± 0.57	992.84 ± 0.61	984.44 ± 0.66	2.453 ± 0.19	2.051 ± 0.17	1.748 ± 0.15
x1 = 0.1626	1005.4 ± 0.6	997.09 ± 0.59	988.83 ± 0.64	2.672 ± 0.21	2.251 ± 0.18	1.905 ± 0.16
x1 = 0.1759	1009.49 ± 0.63	1001.24 ± 0.58	993.01 ± 0.61	2.922 ± 0.22	2.406 ± 0.19	2.02 ± 0.17
